Results: the NIST ThermoML archive (doi:10.1016/j.jct.2005.05.020)

Test: xn = mol fraction of the nth substance listed
Details: 101 kPa, Liquid

CCCCCC [hexane] + CCCCCCC
mass density [kg/m3]
Details | x1 = 0.1019 | x1 = 0.2003 | x1 = 0.3005 | x1 = 0.4007 | x1 = 0.5001 | x1 = 0.5984 | x1 = 0.7002 | x1 = 0.7995 | x1 = 0.8974
273.15 K | 698.37 | 696.77 | 694.27 | 692.25 | 689.57 | 687.14 | 684.81 | 682.14 | 679.66
278.15 K | 694.22 | 692.61 | 690.08 | 688.04 | 685.35 | 682.88 | 680.52 | 677.82 | 675.32
283.15 K | 690.04 | 688.42 | 685.86 | 683.8 | 681.08 | 678.58 | 676.2 | 673.47 | 670.94
288.15 K | 685.84 | 684.21 | 681.62 | 679.53 | 676.79 | 674.26 | 671.85 | 669.1 | 666.54
293.15 K | 681.62 | 679.97 | 677.36 | 675.24 | 672.47 | 669.91 | 667.47 | 664.69 | 662.1
298.15 K | 677.38 | 675.7 | 673.06 | 670.93 | 668.12 | 665.53 | 663.06 | 660.24 | 657.62
303.15 K | 673.11 | 671.42 | 668.74 | 666.58 | 663.74 | 661.12 | 658.62 | 655.77 | 653.12
308.15 K | 668.81 | 667.09 | 664.39 | 662.2 | 659.32 | 656.67 | 654.14 | 651.25 | 648.57
313.15 K | 664.47 | 662.74 | 660 | 657.78 | 654.86 | 652.19 | 649.62 | 646.69 | 643.98
318.15 K | 660.11 | 658.36 | 655.58 | 653.33 | 650.35 | 647.66 | 645.06 | 642.1 | 639.34
323.15 K | 655.71 | 653.93 | 651.12 | 648.84 | 645.81 | 643.1 | 640.45 | 637.45 | 634.65
328.15 K | 651.27 | 649.47 | 646.62 | 644.31 | 641.22 | 638.48 | 635.8 | 632.76 | 629.92
333.15 K | 646.79 | 644.97 | 642.07 | 639.73 | 636.58 | 633.82 | 631.24 | 628.01 | 625.13
338.15 K | 642.28 | 640.43 | 637.49 | 635.11 | 631.89 | – | 626.48 | 623.2 | 620.28
343.15 K | 637.71 | 635.84 | 632.85 | 630.44 | 627.14 | – | 621.67 | – | –
348.15 K | 633.1 | 631.2 | 628.16 | 625.71 | 622.33 | – | 616.8 | – | –
353.15 K | 628.43 | 626.5 | 623.42 | 620.92 | – | – | – | – | –
358.15 K | 623.71 | 621.75 | 618.61 | 616.08 | – | – | – | – | –
363.15 K | 618.94 | 616.94 | 613.75 | 611.16 | – | – | – | – | –

CCCCC [pentane] + CCCCCC
Details | mass density [kg/m3]
273.15 K, x1 = 0.0999 | 674.29
273.15 K, x1 = 0.1996 | 671.84
273.15 K, x1 = 0.2998 | 668.66
273.15 K, x1 = 0.3884 | 666.23
273.15 K, x1 = 0.5 | 662.72
273.15 K, x1 = 0.6 | 659.97
273.15 K, x1 = 0.7001 | 657
273.15 K, x1 = 0.8995 | 650.09
273.16 K, x1 = 0.8011 | 653.2
278.15 K, x1 = 0.0999 | 669.9
278.15 K, x1 = 0.1996 | 667.39
278.15 K, x1 = 0.2998 | 664.21
278.15 K, x1 = 0.3884 | 661.71
278.15 K, x1 = 0.5 | 658.2
278.15 K, x1 = 0.6 | 655.38
278.15 K, x1 = 0.7001 | 652.36
278.15 K, x1 = 0.8011 | 648.53
278.15 K, x1 = 0.8995 | 645.39
283.14 K, x1 = 0.3884 | 657.16
283.14 K, x1 = 0.6 | 650.74
283.14 K, x1 = 0.7001 | 647.7
283.14 K, x1 = 0.8011 | 643.81
283.14 K, x1 = 0.8995 | 640.63
283.15 K, x1 = 0.0999 | 665.46
283.15 K, x1 = 0.1996 | 662.9
283.15 K, x1 = 0.2998 | 659.71
283.15 K, x1 = 0.5 | 653.63
288.14 K, x1 = 0.1996 | 658.38
288.14 K, x1 = 0.3884 | 652.56
288.14 K, x1 = 0.6 | 646.06
288.14 K, x1 = 0.7001 | 642.98
288.14 K, x1 = 0.8995 | 635.83
288.15 K, x1 = 0.0999 | 661
288.15 K, x1 = 0.2998 | 655.18
288.15 K, x1 = 0.5 | 649.01
288.15 K, x1 = 0.8011 | 639.05
293.14 K, x1 = 0.6 | 641.34
293.14 K, x1 = 0.7001 | 638.21
293.15 K, x1 = 0.0999 | 656.49
293.15 K, x1 = 0.1996 | 653.82
293.15 K, x1 = 0.2998 | 650.6
293.15 K, x1 = 0.3884 | 647.93
293.15 K, x1 = 0.5 | 644.36
293.15 K, x1 = 0.8011 | 634.24
293.15 K, x1 = 0.8995 | 630.97
298.14 K, x1 = 0.1996 | 649.22
298.14 K, x1 = 0.3884 | 643.25
298.14 K, x1 = 0.6 | 636.57
298.14 K, x1 = 0.7001 | 633.51
298.14 K, x1 = 0.8995 | 626.07
298.15 K, x1 = 0.0999 | 651.95
298.15 K, x1 = 0.2998 | 645.98
298.15 K, x1 = 0.5 | 639.66
298.15 K, x1 = 0.8011 | 629.38
303.14 K, x1 = 0.1996 | 644.58
303.14 K, x1 = 0.3884 | 638.53
303.14 K, x1 = 0.6 | 631.74
303.14 K, x1 = 0.7001 | 628.65
303.14 K, x1 = 0.8011 | 624.47
303.15 K, x1 = 0.0999 | 647.36
303.15 K, x1 = 0.2998 | 641.31
303.15 K, x1 = 0.5 | 634.91
303.15 K, x1 = 0.8995 | 621.11
308.14 K, x1 = 0.7001 | 623.75
308.15 K, x1 = 0.0999 | 642.74
308.15 K, x1 = 0.1996 | 639.9
308.15 K, x1 = 0.2998 | 636.59
308.15 K, x1 = 0.3884 | 633.76
308.15 K, x1 = 0.5 | 630.1
308.15 K, x1 = 0.6 | 626.86
308.15 K, x1 = 0.8011 | 619.5
308.15 K, x1 = 0.8995 | 616.08
313.14 K, x1 = 0.6 | 621.92
313.14 K, x1 = 0.8011 | 614.47
313.14 K, x1 = 0.8995 | 611
313.15 K, x1 = 0.0999 | 638.06
313.15 K, x1 = 0.1996 | 635.17
313.15 K, x1 = 0.2998 | 631.82
313.15 K, x1 = 0.3884 | 628.94
313.15 K, x1 = 0.5 | 625.24
313.15 K, x1 = 0.7001 | 618.75
318.14 K, x1 = 0.3884 | 624.06
318.14 K, x1 = 0.6 | 616.92
318.14 K, x1 = 0.7001 | 613.89
318.14 K, x1 = 0.8995 | 605.86
318.15 K, x1 = 0.0999 | 633.32
318.15 K, x1 = 0.1996 | 630.38
318.15 K, x1 = 0.5 | 620.41
318.15 K, x1 = 0.8011 | 609.38
323.14 K, x1 = 0.1996 | 625.55
323.14 K, x1 = 0.5 | 615.41
323.14 K, x1 = 0.8995 | 600.65
323.15 K, x1 = 0.0999 | 628.53
323.15 K, x1 = 0.6 | 611.84
328.14 K, x1 = 0.1996 | 620.65
328.15 K, x1 = 0.0999 | 623.68
328.15 K, x1 = 0.5 | 610.35
328.15 K, x1 = 0.6 | 606.69
333.15 K, x1 = 0.0999 | 618.77
333.15 K, x1 = 0.1996 | 615.6

CCCCC [pentane] + CCCCCCC
mass density [kg/m3]
Details | x1 = 0.1014 | x1 = 0.2019 | x1 = 0.3011 | x1 = 0.4001 | x1 = 0.4997 | x1 = 0.5999 | x1 = 0.698 | x1 = 0.7991 | x1 = 0.8992
273.14 K | – | 691.57 | – | – | – | – | – | – | –
273.15 K | 696.24 | – | 686.91 | 682.43 | 677.18 | 671.16 | 665.42 | 659.05 | 652.37
278.15 K | 692.07 | 687.35 | 682.65 | 678.13 | 672.82 | 666.73 | 660.92 | 654.47 | 647.72
283.15 K | 687.87 | 683.1 | 678.35 | 673.78 | 668.42 | 662.25 | 656.37 | 649.85 | 643.01
288.15 K | 683.65 | 678.83 | 674.03 | 669.41 | 663.99 | 657.74 | 651.79 | 645.18 | 638.26
293.15 K | 679.4 | 674.53 | 669.67 | 665.01 | 659.51 | 653.19 | 647.17 | 640.48 | 633.46
298.15 K | 675.12 | 670.21 | 665.29 | 660.56 | 655.01 | 648.6 | 642.5 | 635.73 | 628.61
303.15 K | 670.82 | 665.85 | 660.88 | 656.08 | 650.46 | 643.97 | 637.79 | 630.93 | 623.7
308.15 K | 666.49 | 661.46 | 656.43 | 651.57 | 645.86 | 639.3 | 633.03 | 626.07 | –
313.15 K | 662.08 | 657.04 | 651.94 | 647 | 641.22 | 634.58 | 628.22 | 621.16 | –
318.15 K | 657.69 | 652.58 | 647.42 | 642.39 | 636.53 | – | 623.36 | 616.18 | –
323.15 K | 653.26 | 648.09 | 642.84 | 637.74 | 631.79 | – | 618.43 | 611.14 | –
328.15 K | 648.78 | 643.55 | 638.23 | 633.03 | 626.99 | – | – | – | –
333.15 K | 644.24 | – | 633.57 | 628.26 | 622.13 | – | – | – | –
338.15 K | 639.67 | – | – | 623.48 | 617.2 | – | – | – | –
343.15 K | 635.01 | – | – | 618.87 | – | – | – | – | –
